Where no end group is shown, it is not given here.
Experiments:
[1] = Stability in CWE with protease inhibitor cocktail (PIC), capillary zone electrophoresis; type: in vitro ADME, human; conditions: 37°C, CZE, 0 h = 100%; for Percentage intact, CWE + PIC 2h / Percentage intact, CWE + PIC 4h / Percentage intact, CWE + PIC 8h / Percentage intact, CWE + PIC 16h / Percentage intact, CWE + PIC 24h / Percentage intact, CWE + PIC 48h / Percentage intact, CWE + PIC 72h / Percentage intact, CWE + PIC 96h: 1 mg/ml in PBS mixed 1:1 with CWE (1 mg/ml protein, pool of 5 donors) in PBS containing PIC (final 1:140 v/v), ratio to imidazole
Source text: Debridement tissue was obtained from chronic ulcers of 15 patients with therapy resistant (arterio-venous) leg ulcers, according to procedures described earlier. In brief, moist, easily removable debridement material, essentially blood free, was collected from the ulcer surface and divided equally into two different solutions: (i) PBS (B. Braun, Melsungen, Germany), (ii) PBS with protease inhibitor cocktail (PIC) (1:100; v/v) (Sigma-Aldrich, Steinheim, Germany). The mixtures were gently shaken for 1 h at 4°C to elute proteins and centrifuged; the supernatants were stored at -80°C. Total protein content of the supernatant was measured using the BioRad Protein Assay (BioRad Laboratories, Hercules, California, USA) essentially as described by the supplier. Samples were diluted to 1 mg/ml protein and extracts of five different donors were pooled; three different pools of five donors were used in all experiments. The samples are referred to as chronic wound extracts (CWE).
To determine the stability of the different peptides in CWE, histatins and cytokines were dissolved in PBS at 1 mg/ml. Histatins and cytokines were incubated in a 1:1 ratio with (i) PBS, (ii) CWE in PBS, or (iii) CWE in PBS containing PIC, in a total volume of 25 μl. Imidazole (Sigma-Aldrich) was added as an internal standard, with a final concentration of 100 μg/ml. The mixtures were incubated at 37°C, and samples were taken at 0, 24, 48, 72 and 96 h. For histatins containing mixtures, additional samples were taken after 2, 4, 8 and 16 h of incubation.
(§1) The samples were analyzed with a BioFocus 2000 capillary zone electrophoresis system (Bio-Rad Laboratories, Hercules, CA, USA) equipped with an uncoated fused-silica capillary of internal diameter 50 μm and a length of 24 cm. Samples were loaded by pressure injection (5 psi/sec). Separation was performed at 10 kV (cathode at the detector side) at 20°C using 0.1 M phosphate buffer (pH 2.5) as electrolyte and monitored continuously at 200 nm. Peaks were quantified with the BioFocus Integrator software. In order to quantify the percentage of intact peptides remaining after incubation with CWE, the ratios of histatins, rhIL-6 or rhCXCL8 to internal standard was set at 100% at 0h, and the ratios at the other incubation time points were related to this.

[2] = Dose response of Hst1 and PIC in the presence of CWE; type: in vitro ADME, human; conditions: CWE 1 mg/ml, 37°C, CZE, 0 h = 100%; for Intact Hst1, CWE + PIC 1:140 24h / Intact Hst1, CWE + PIC 1:140 96h: PIC:CWE 1:140 v/v; for Intact Hst1, CWE + PIC 1:280 24h / Intact Hst1, CWE + PIC 1:280 96h: PIC:CWE 1:280 v/v
Description: For the dose response of PIC and Hst1, three different concentrations of Hst1 were prepared (0.5 mg/ml, 1 mg/ml and 2 mg/ml) and two different concentrations of PIC were used. The final PIC concentration in the CWE (1 mg/ml) sample was 1:140 v/v (same as above) or 1:280 v/v (2x diluted). Mixtures were incubated at 37°C and samples were taken at 0, 24 and 96 h.
as §1

[3] = Hst1 0.5 mg/ml, experiment 1 of 3
[4] = Hst1 0.5 mg/ml, experiment 2 of 3
[5] = Hst1 1 mg/ml, experiment 3 of 3
[6] = Hst1 2 mg/ml, experiment 1 of 3
[7] = Hst1 2 mg/ml, experiment 2 of 3
[8] = Hst1 2 mg/ml, experiment 3 of 3

For “DSHEKRHHGYRRKFHEKHHSHREFPFYGDYGSNYLYDN [Hst1]”, the “Percentage intact, CWE + PIC 2h” value ([1]; experiment 1 of 3) was 91.8564%, the “Percentage intact, CWE + PIC 2h” value ([1]; experiment 2 of 3) was 90.6434% and the “Percentage intact, CWE + PIC 2h” value ([1]; experiment 3 of 3) was 99.1023%. For the same sequence, the “Percentage intact, CWE + PIC 4h” value ([1]; experiment 1 of 3) was 81.1086%, the “Percentage intact, CWE + PIC 4h” value ([1]; experiment 2 of 3) was 81.649% and the “Percentage intact, CWE + PIC 4h” value ([1]; experiment 3 of 3) was 84.0062%. The “Percentage intact, CWE + PIC 8h” value ([1]; experiment 1 of 3) was 76.5843%, the “Percentage intact, CWE + PIC 8h” value ([1]; experiment 2 of 3) was 75.4466% and the “Percentage intact, CWE + PIC 8h” value ([1]; experiment 3 of 3) was 82.0587%. For the same sequence, the “Percentage intact, CWE + PIC 16h” value ([1]; experiment 1 of 3) was 72.2461%, the “Percentage intact, CWE + PIC 16h” value ([1]; experiment 2 of 3) was 65.5164% and the “Percentage intact, CWE + PIC 16h” value ([1]; experiment 3 of 3) was 70.9806%. For the same sequence, the “Percentage intact, CWE + PIC 24h” value ([1]; 24 h, experiment 1 of 3) was 78.4236%, the “Percentage intact, CWE + PIC 24h” value ([1]; 24 h, experiment 2 of 3) was 69.711% and the “Percentage intact, CWE + PIC 24h” value ([1]; 24 h, experiment 3 of 3) was 68.9989%. For the same sequence, the “Percentage intact, CWE + PIC 48h” value ([1]; experiment 1 of 3) was 73.7424%, the “Percentage intact, CWE + PIC 48h” value ([1]; experiment 2 of 3) was 59.1893% and the “Percentage intact, CWE + PIC 48h” value ([1]; experiment 3 of 3) was 54.0682%. The “Percentage intact, CWE + PIC 72h” value ([1]; experiment 1 of 3) was 64.2173%, the “Percentage intact, CWE + PIC 72h” value ([1]; experiment 2 of 3) was 41.8342% and the “Percentage intact, CWE + PIC 72h” value ([1]; experiment 3 of 3) was 36.0529%. The “Percentage intact, CWE + PIC 96h” value ([1]; experiment 1 of 3) was 48.0273%, the “Percentage intact, CWE + PIC 96h” value ([1]; experiment 2 of 3) was 30% and the “Percentage intact, CWE + PIC 96h” value ([1]; experiment 3 of 3) was 21.2156%. For the same sequence, the remaining at 24 h, 0.5 mg/ml ([1]; human, with protease inhibitor cocktail (PIC), CWE with protease inhibitor cocktail (final 1:140 v/v), 24 h, mean of 3 independent experiments, read-out: Remaining fraction of intact peptide after 24 h in CWE + PIC) was 72%, the “Intact Hst1, CWE + PIC 1:140 24h” value [2, 3] was 73.4639% and the “Intact Hst1, CWE + PIC 1:140 24h” value [2, 4] was 69.7277%. The “Intact Hst1, CWE + PIC 1:140 24h” value ([2]; Hst1 0.5 mg/ml, experiment 3 of 3) was 63.6084%, the “Intact Hst1, CWE + PIC 1:140 96h” value [2, 3] was 54.3382% and the “Intact Hst1, CWE + PIC 1:140 96h” value [2, 4] was 46.1353%. For the same sequence, the “Intact Hst1, CWE + PIC 1:280 24h” value [2, 3] was 49.1645%, the “Intact Hst1, CWE + PIC 1:280 24h” value [2, 4] was 30.5445% and the “Intact Hst1, CWE + PIC 1:280 96h” value [2, 3] was 24.1883%. For the same sequence, the “Intact Hst1, CWE + PIC 1:280 96h” value [2, 4] was 18.189%, the “Intact Hst1, CWE + PIC 1:140 24h” value [2, 5] was 58.7589% and the “Intact Hst1, CWE + PIC 1:140 96h” value [2, 5] was 38.9986%. For the same sequence, the “Intact Hst1, CWE + PIC 1:280 24h” value [2, 5] was 38.2658%, the “Intact Hst1, CWE + PIC 1:280 96h” value [2, 5] was 25.9997% and the “Intact Hst1, CWE + PIC 1:140 24h” value [2, 6] was 77.6287%. The “Intact Hst1, CWE + PIC 1:140 24h” value [2, 7] was 76.5019%, the “Intact Hst1, CWE + PIC 1:140 24h” value [2, 8] was 68.9738% and the “Intact Hst1, CWE + PIC 1:140 96h” value [2, 6] was 61.2993%. The “Intact Hst1, CWE + PIC 1:140 96h” value [2, 7] was 47.6383% and the “Intact Hst1, CWE + PIC 1:140 96h” value [2, 8] was 45.7764%.

From PMC4809600, “The Influence of Chronic Wound Extracts on Inflammatory Cytokine and Histatin Stability” (PLoS ONE, 2016)
